Key:
Type in all cases: biochemical
Parameters in all cases: from tissue
[1] = biological target: T1, FAAH (Mus musculus, UniProt O08914); assay: In vitro competitive ABPP, % inhibition at fixed concentration, FAAH
T1 sequence (O08914 1-579): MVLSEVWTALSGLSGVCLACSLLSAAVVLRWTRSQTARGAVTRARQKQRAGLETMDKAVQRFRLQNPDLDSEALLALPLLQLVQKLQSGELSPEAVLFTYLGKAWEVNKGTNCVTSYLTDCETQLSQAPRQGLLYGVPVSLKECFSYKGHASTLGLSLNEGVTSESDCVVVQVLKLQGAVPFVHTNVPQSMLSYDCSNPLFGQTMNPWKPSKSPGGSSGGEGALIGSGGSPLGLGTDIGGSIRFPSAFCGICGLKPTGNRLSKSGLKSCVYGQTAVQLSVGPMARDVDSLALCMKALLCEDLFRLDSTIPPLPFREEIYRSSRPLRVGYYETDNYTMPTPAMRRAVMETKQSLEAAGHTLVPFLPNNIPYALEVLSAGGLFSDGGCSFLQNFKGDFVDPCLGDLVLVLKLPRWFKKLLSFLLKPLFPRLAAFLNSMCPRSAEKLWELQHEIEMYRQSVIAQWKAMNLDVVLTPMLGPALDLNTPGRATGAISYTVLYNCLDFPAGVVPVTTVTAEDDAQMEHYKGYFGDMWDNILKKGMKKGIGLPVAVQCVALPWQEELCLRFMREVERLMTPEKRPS
Procedure, shortened: (§1)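 Mouse brain membrane proteome or cell lysate at 1.0 mg/ml was preincubated with inhibitor for 30 min at 37° C, then labelled with FP-Rh for another 30 min. After SDS-PAGE, activity was quantified from the fluorescent intensity of the MAGL, ABHD6 and FAAH bands.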

[2] = biological target: T2, ABHD6 (Mus musculus, UniProt Q8R2Y0); assay: In vitro competitive ABPP, % inhibition at fixed concentration, ABHD6
T2 sequence (Q8R2Y0 1-336): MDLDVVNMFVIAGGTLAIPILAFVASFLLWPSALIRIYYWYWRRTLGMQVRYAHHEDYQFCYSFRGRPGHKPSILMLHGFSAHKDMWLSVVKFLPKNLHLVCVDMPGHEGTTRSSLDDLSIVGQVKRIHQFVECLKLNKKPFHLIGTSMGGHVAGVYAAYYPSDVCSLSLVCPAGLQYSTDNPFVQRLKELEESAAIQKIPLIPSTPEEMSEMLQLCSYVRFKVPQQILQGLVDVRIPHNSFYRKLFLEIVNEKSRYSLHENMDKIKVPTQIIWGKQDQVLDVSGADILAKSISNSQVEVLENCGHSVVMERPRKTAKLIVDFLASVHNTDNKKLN
Procedure, shortened: as §1

[3] = biological target: T3, MAGL (Mus musculus, UniProt O35678); assay: In vitro competitive ABPP, % inhibition at fixed concentration, MAGL
T3 sequence (O35678 1-303): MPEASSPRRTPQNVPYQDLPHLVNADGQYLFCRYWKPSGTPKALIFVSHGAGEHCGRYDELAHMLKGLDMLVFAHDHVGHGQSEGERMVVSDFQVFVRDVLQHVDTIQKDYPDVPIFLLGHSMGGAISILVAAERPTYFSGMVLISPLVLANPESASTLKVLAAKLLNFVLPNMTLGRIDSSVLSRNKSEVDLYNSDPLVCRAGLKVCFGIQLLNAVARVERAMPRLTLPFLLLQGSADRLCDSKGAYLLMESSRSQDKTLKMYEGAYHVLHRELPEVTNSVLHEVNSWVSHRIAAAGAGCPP
Procedure, shortened: as §1

| inhibition at 1 µM [1] | inhibition at 1 µM [2] | inhibition at 1 µM [3] | Structure (SMILES) |
| --- | --- | --- | --- |
| < 25% | 25 to 75% | 25 to 75% | Cc1cccc(-c2ccc(CN3CCN(C(=O)ON4C(=O)CCC4=O)CC3)c(C)c2)n1 [Example 173, 2,5-Dioxopyrrolidin-1-yl 4-{[2-methyl-4-(6-methylpyridin-2-yl)phenyl]methyl}piperazine-1-carboxylate] |
| < 25% | 25 to 75% | 25 to 75% | Cc1ncccc1-c1ccc(CN2CCN(C(=O)ON3C(=O)CCC3=O)CC2)c(F)c1 [Example 174, 2,5-Dioxopyrrolidin-1-yl 4-{[2-fluoro-4-(2-methylpyridin-3-yl)phenyl]methyl}piperazine-1-carboxylate] |
| < 25% | 25 to 75% | 25 to 75% | Cc1cccc(-c2ccc(CN3CCN(C(=O)ON4C(=O)CCC4=O)CC3)c(F)c2)n1 [Example 175, 2,5-Dioxopyrrolidin-1-yl 4-{[2-fluoro-4-(6-methylpyridin-2-yl)phenyl]methyl}piperazine-1-carboxylate] |
| < 25% | 25 to 75% | 25 to 75% | Cc1cc(-c2ccc(CN3CCN(C(=O)ON4C(=O)CCC4=O)CC3)c(F)c2)cc(C)n1 [Example 176, 2,5-Dioxopyrrolidin-1-yl 4-{[4-(2,6-dimethylpyridin-4-yl)-2-fluorophenyl]methyl}piperazine-1-carboxylate] |
| < 25% | > 75% | 25 to 75% | Cc1cnccc1-c1ccc(CN2CCN(C(=O)ON3C(=O)CCC3=O)CC2)c(F)c1 [Example 177, 2,5-Dioxopyrrolidin-1-yl 4-{[2-fluoro-4-(3-methylpyridin-4-yl)phenyl]methyl}piperazine-1-carboxylate] |
| < 25% | 25 to 75% | 25 to 75% | Cc1nc(CN2CCN(C(=O)ON3C(=O)CCC3=O)CC2)ccc1-c1ccccc1F [Example 178, 2,5-Dioxopyrrolidin-1-yl 4-{[5-(2-fluorophenyl)-6-methylpyridin-2-yl]methyl}piperazine-1-carboxylate] |
| < 25% | 25 to 75% | 25 to 75% | Cc1ccccc1-c1ccc(CN2CCN(C(=O)ON3C(=O)CCC3=O)CC2)nc1C [Example 179, 2,5-Dioxopyrrolidin-1-yl 4-{[6-methyl-5-(2-methylphenyl)pyridin-2-yl]methyl}piperazine-1-carboxylate] |
| < 25% | > 75% | > 75% | Cc1cccc(-c2ccc(CN3CCN(C(=O)ON4C(=O)CCC4=O)CC3)nc2C)c1 [Example 180, 2,5-Dioxopyrrolidin-1-yl 4-{[6-methyl-5-(3-methylphenyl)pyridin-2-yl]methyl}piperazine-1-carboxylate] |
| < 25% | < 25% | 25 to 75% | Cc1nc(CN2CCN(C(=O)ON3C(=O)CCC3=O)CC2)ccc1-c1cccc(F)c1 [Example 181, 2,5-Dioxopyrrolidin-1-yl 4-{[5-(3-fluorophenyl)-6-methylpyridin-2-yl]methyl}piperazine-1-carboxylate] |
| < 25% | > 75% | 25 to 75% | Cc1ccccc1-c1ccc(CN2CCN(C(=O)ON3C(=O)CCC3=O)CC2)c(C)n1 [Example 182, 2,5-Dioxopyrrolidin-1-yl 4-{[2-methyl-6-(2-methylphenyl)pyridin-3-yl]methyl}piperazine-1-carboxylate] |
| < 25% | > 75% | 25 to 75% | Cc1nc(-c2ccccc2F)ccc1CN1CCN(C(=O)ON2C(=O)CCC2=O)CC1 [Example 183, 2,5-Dioxopyrrolidin-1-yl 4-{[6-(2-fluorophenyl)-2-methylpyridin-3-yl]methyl}piperazine-1-carboxylate] |
| < 25% | 25 to 75% | > 75% | Cc1cccc(-c2ccc(CN3CCN(C(=O)ON4C(=O)CCC4=O)CC3)c(C)n2)c1 [Example 184, 2,5-Dioxopyrrolidin-1-yl 4-{[2-methyl-6-(3-methylphenyl)pyridin-3-yl]methyl}piperazine-1-carboxylate] |
| < 25% | > 75% | > 75% | Cc1nc(-c2cccc(F)c2)ccc1CN1CCN(C(=O)ON2C(=O)CCC2=O)CC1 [Example 185, 2,5-Dioxopyrrolidin-1-yl 4-{[6-(3-fluorophenyl)-2-methylpyridin-3-yl]methyl}piperazine-1-carboxylate] |
| < 25% | 25 to 75% | 25 to 75% | CC(C)c1cc(N2CCCC2)ccc1CN1CCN(C(=O)ON2C(=O)CCC2=O)CC1 [Example 186, 2,5-Dioxopyrrolidin-1-yl 4-{[2-(propan-2-yl)-4-(pyrrolidin-1-yl)phenyl]methyl}piperazine-1-carboxylate] |
| < 25% | 25 to 75% | 25 to 75% | CC(C)c1cc(N2CCOCC2)ccc1CN1CCN(C(=O)ON2C(=O)CCC2=O)CC1 [Example 187, 2,5-Dioxopyrrolidin-1-yl 4-{[4-(morpholin-4-yl)-2-(propan-2-yl)phenyl]methyl}piperazine-1-carboxylate] |
| < 25% | < 25% | 25 to 75% | O=C(ON1C(=O)CCC1=O)N1CCN(Cc2cccc(Cl)c2C(=O)N2CCCC2)CC1 [Example 190, 2,5-Dioxopyrrolidin-1-yl 4-{[3-chloro-2-(pyrrolidine-1-carbonyl)phenyl]methyl}piperazine-1-carboxylate] |
| < 25% | 25 to 75% | 25 to 75% | O=C(ON1C(=O)CCC1=O)N1CCN(Cc2ccc(C(=O)N3CCOCC3)cc2Cl)CC1 [Example 192, 2,5-dioxopyrrolidin-1-yl 4-{[2-chloro-4-(morpholine-4-carbonyl)phenyl]methyl}piperazine-1-carboxylate] |
| < 25% | 25 to 75% | 25 to 75% | O=C(ON1C(=O)CCC1=O)N1CCN(Cc2ccc(C(=O)N3CCCC3)cc2Cl)CC1 [Example 193, 2,5-Dioxopyrrolidin-1-yl 4-{[2-chloro-4-(pyrrolidine-1-carbonyl)phenyl]methyl}piperazine-1-carboxylate] |
| < 25% | 25 to 75% | 25 to 75% | O=C(ON1C(=O)CCC1=O)N1CCN(Cc2ccc(C(=O)N3CCC3)cc2Cl)CC1 [Example 194, 2,5-Dioxopyrrolidin-1-yl 4-{[4-(azetidine-1-carbonyl)-2-chlorophenyl]methyl}piperazine-1-carboxylate] |
| < 25% | < 25% | < 25% | O=C(ON1C(=O)CCC1=O)N1CCN(Cc2ccc(Cl)cc2C(=O)N2CCOCC2)CC1 [Example 195, 2,5-Dioxopyrrolidin-1-yl 4-{[4-chloro-2-(morpholine-4-carbonyl)phenyl]methyl}piperazine-1-carboxylate] |
| < 25% | < 25% | 25 to 75% | O=C(ON1C(=O)CCC1=O)N1CCN(Cc2ccc(Cl)cc2C(=O)N2CCCC2)CC1 [Example 196, 2,5-Dioxopyrrolidin-1-yl 4-{[4-chloro-2-(pyrrolidine-1-carbonyl)phenyl]methyl}piperazine-1-carboxylate] |
| < 25% | < 25% | < 25% | O=C(ON1C(=O)CCC1=O)N1CCN(Cc2ccc(Cl)cc2C(=O)N2CCC2)CC1 [Example 197, 2,5-Dioxopyrrolidin-1-yl 4-{[2-(azetidine-1-carbonyl)-4-chlorophenyl]methyl}piperazine-1-carboxylate] |
| < 25% | < 25% | < 25% | O=C(ON1C(=O)CCC1=O)N1CCN(Cc2cccc(Cl)c2C(=O)N2CCOCC2)CC1 [Example 198, 2,5-Dioxopyrrolidin-1-yl 4-{[3-chloro-2-(morpholine-4-carbonyl)phenyl]methyl}piperazine-1-carboxylate] |

Reference: patent publication US9567302B2, “Carbamate compounds and of making and using same” (Abide Therapeutics, Inc., priority 2012, dated 2017)
